Here are results for five compounds from patent US8568736B2, “Polypeptide derivatives of parathyroid hormone (PTH)” (The General Hospital Corporation, priority 1999, dated 2013).

Format in all cases: cell-based
In test [1] the target is T1, human PTH-1 receptor (endogenous, SAOS-2 cells) (Homo sapiens, UniProt Q03431).
T1 construct: the human osteoblastic cell line, SAOS-2, express endogenous PTH-1 receptors; endogenous in cells; host or cells: SAOS-2 human osteoblastic cells
T1 sequence (Q03431 27-593): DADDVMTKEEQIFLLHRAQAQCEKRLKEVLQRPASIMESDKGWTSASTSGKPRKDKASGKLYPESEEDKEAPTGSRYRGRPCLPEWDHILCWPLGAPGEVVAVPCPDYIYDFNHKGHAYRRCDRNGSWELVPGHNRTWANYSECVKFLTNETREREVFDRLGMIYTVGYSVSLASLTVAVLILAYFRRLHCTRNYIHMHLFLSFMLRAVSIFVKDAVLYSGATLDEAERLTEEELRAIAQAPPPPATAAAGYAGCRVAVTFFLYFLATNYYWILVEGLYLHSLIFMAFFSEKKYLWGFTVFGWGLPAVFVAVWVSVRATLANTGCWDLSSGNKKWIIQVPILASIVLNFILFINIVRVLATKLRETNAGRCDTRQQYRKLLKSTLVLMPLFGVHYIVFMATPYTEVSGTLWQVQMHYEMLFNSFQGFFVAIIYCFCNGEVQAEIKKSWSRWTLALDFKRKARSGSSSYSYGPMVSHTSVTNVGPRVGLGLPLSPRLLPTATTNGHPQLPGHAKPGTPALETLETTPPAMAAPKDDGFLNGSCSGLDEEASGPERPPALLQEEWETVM
Kind of test: cAMP response in osteoblastic SAOS-2 cells. As to the method: (§1) The rat osteoblastic cell line ROS 17/2.8 (Majeska, R. J., et al, Endocrinology 107:1494-1503 (1980)) expresses endogenous PTH-1 receptors at levels of 80,000 per cell and the human osteoblastic cell line, SAOS-2, express endogenous PTH-1 receptors at levels of ˜30,000 per cell.
(§2) Stimulation of cells with peptide analogs was performed in 24-well plates. Cells were rinsed with 0.5 mL of binding buffer and treated with 200 μL of cAMP assay buffer (Dulbecco's modified Eagle's medium containing 2 mM 3-isobutyl-1-methylxanthine, 1 mg/mL bovine serum albumin, 35 mM Hepes-NaOH, pH 7.4) and 100 μL of binding buffer containing varying amounts of peptide analog (final volume=300 μL). The medium was removed after incubation for 1 h at room temperature, and the cells were frozen (−80° C.), lysed with 0.5 mL 50 mM HCl, and refrozen (−80° C.). The cAMP content of the diluted lysate was determined by radioimmunoassay. Where possible, cAMP EC50 and Maximum response values were determined using nonlinear regression (see below).
(§3) All calculations were performed using Microsoft Excel. Nonlinear regression analysis of cAMP stimulation data was performed using parameters, defined as the Minimum, Maximum, Emax, midpoint (EC50), and slope of the response curve. The predicted response (yp) for a given dose (x) of peptide was calculated using the following equation: yp=Min+[(Max−Min)/(1+(EC50/x)^slope)]. The initial parameter values were estimated from the primary data, and the Excel “Solver function” was then used to vary the four parameters in order to minimize the differences between the predicted and actual responses (least-squares method) (Bowen, W., & Jerman, J., Trends in Pharmacol. Sci. 16:413-417 (1995)). The statistical significance between two data sets was determined using a one-tailed Student's t-test, assuming unequal variances for the two sets.

Test [2] addresses T2, truncated human PTH-1 receptor, hΔNt (Homo sapiens, UniProt Q03431).
T2 construct: expressed in transfected cells; host or cells: COS-7, transient, pcDNA-1 plasmid derived from HK-WT
T2 sequence (Q03431 with tags, fused parts or gaps limits assumed): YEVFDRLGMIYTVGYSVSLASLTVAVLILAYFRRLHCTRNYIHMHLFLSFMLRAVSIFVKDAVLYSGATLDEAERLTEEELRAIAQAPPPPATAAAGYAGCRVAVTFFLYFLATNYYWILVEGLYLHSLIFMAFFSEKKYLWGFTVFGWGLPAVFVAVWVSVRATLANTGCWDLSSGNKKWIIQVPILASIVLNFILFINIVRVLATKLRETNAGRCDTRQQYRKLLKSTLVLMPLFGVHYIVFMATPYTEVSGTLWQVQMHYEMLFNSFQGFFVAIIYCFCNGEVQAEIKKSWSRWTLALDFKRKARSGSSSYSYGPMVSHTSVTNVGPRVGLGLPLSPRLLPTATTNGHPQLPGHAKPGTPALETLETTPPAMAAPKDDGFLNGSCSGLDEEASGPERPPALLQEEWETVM
Kind of test: cAMP stimulation in COS-7 cells transiently transfected with truncated receptor hDeINt. The conditions noted are these: for Emax: hDeINt, Emax constrained to peptide #7 (20 μM) response. On the procedure:
COS-7 cells were transfected in 24-well plates when the cells were 85 to 95% of confluency using 200 ng of plasmid DNA that was purified by cesium chloride/ethidium bromide gradient centrifugation for each well. Assays were conducted 72 to 96 hours after transfection.
as §2
All calculations were performed using Microsoft Excel. Nonlinear regression analysis of cAMP stimulation data was performed using parameters, defined as the Minimum, Maximum, Emax, midpoint (EC50), and slope of the response curve. The predicted response (yp) for a given dose (x) of peptide was calculated using the following equation: yp=Min+[(Max−Min)/(1+(EC50/x)^slope)]. […] The statistical significance between two data sets was determined using a one-tailed Student's t-test, assuming unequal variances for the two sets.

Test [3] deals with T3, rat PTH-1 receptor (endogenous, ROS 17/2.8 cells) (Rattus norvegicus, UniProt P25961).
T3 construct: The rat osteoblastic cell line ROS 17/2.8; endogenous in cells; host or cells: ROS 17/2.8 rat osteoblastic cells
T3 sequence (P25961 27-591): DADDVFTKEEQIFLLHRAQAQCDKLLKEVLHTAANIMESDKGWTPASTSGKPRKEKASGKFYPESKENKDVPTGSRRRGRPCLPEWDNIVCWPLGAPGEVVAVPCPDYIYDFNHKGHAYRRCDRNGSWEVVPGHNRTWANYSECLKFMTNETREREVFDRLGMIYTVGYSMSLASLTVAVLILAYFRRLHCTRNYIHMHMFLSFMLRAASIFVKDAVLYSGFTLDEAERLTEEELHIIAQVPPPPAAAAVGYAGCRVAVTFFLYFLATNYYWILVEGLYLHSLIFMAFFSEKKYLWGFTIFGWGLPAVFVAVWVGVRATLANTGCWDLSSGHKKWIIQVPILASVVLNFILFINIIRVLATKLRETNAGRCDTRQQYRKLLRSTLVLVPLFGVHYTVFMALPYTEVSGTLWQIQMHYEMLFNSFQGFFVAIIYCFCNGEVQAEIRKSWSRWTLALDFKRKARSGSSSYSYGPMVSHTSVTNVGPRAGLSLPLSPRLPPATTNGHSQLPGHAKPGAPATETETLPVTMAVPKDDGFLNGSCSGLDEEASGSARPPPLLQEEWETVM
Kind of test: cAMP response in osteoblastic ROS 17/2.8 cells. The conditions noted are these: for Emax: ROS 17/2.8 cells. As to the method: as §1, §2, §3

The mark [4] stands for this setting: COS-7 cells, hDeINt truncated receptor, cAMP, read-out: EC50.

Where two headings read alike, the source gives them in different places. No end group written: not given here.

For orientation: EC50 means the concentration that produces a half-maximal response. Consider `CCCC[C@H](NC(=O)[C@H](CCCNC(=N)N)NC(=O)[C@H](CCC(=O)O)NC(=O)[C@@H](NC(=O)[C@H](CO)NC(=O)[C@H](C)NC(=O)[C@H](CC(C)C)NC(=O)[C@H](Cc1c[nH]cn1)NC(=O)[C@H](CCCCN)NC(=O)CNC(=O)[C@H](CC(C)C)NC(=O)[C@H](CC(N)=O)NC(=O)[C@H](Cc1c[nH]cn1)NC(=O)[C@H](CCCC)NC(=O)[C@H](CC(C)C)NC(=O)[C@H](CCC(N)=O)NC(=O)[C@@H](NC(=O)[C@H](CCC(=O)O)NC(=O)[C@H](CO)NC(=O)[C@@H](NC(=O)[C@H](C)N)C(C)C)[C@@H](C)CC)C(C)C)C(=O)N[C@@H](CCC(N)=O)C(=O)N[C@@H](Cc1c[nH]c2ccccc12)C(=O)N[C@@H](CC(C)C)C(=O)N[C@@H](CCCNC(=N)N)C(=O)N[C@@H](CCCCN)C(=O)N[C@@H](CCCCN)C(=O)N[C@@H](CC(C)C)C(=O)N[C@@H](CCC(N)=O)C(=O)N[C@@H](CC(=O)O)C(=O)N[C@H](C(=O)N[C@@H](Cc1c[nH]cn1)C(=O)N[C@@H](CC(N)=O)C(=O)N[C@@H](Cc1ccc(O)cc1)C(N)=O)C(C)C` [[Nle8, 21, Y34]rPTH(1-34), [Nle^8,21,Tyr^34]-rPTH(1-34)NH2, reference compound], for which the EC50 was 0.178 nM in test [1] and 0.316 nM in test [3]. Also, the Emax in test [1] (SAOS-2 cells) is 272 ± 33 picomole/well; in test [2] (COS-7 cells) it was 243 ± 63 picomole/well; in test [3], 364 ± 6 picomole/well.
Turning to “AVAEIQLMHAR-NH2 [compound 6, AlaValAlaGluIleGlnLeuMetHisAlaArg-amide]”, the Emax in test [1] (SAOS-2 cells) is given as 235 ± 7 picomole/well; in test [2] (COS-7 cells), 243 ± 63 picomole/well; in test [3] it was 377 ± 23 picomole/well. In addition, the EC50 is 75900 nM in test [1] (SAOS-2 cells, cAMP, read-out: EC50 (converted)) and 27000 ± 12900 nM in test [2] (setting [4]).
Take “AVAEIQLMHARAKH-NH2 [Peptide #1, AlaValAlaGluIleGlnLeuMetHisAlaArgAlaLysHis-amide]”: the results for the Emax in test [1] (SAOS-2 cells), in test [2] (COS-7 cells) and in test [3] were 331 picomole/well, 250 ± 61 picomole/well and 395 ± 1 picomole/well, respectively. For the same compound, the EC50 in test [2] (setting [4]) worked out at 2370 ± 1060 nM. Also, the “fold more potent than native PTH(1-14)” value in test [2] (truncated hPTH-1 receptor lacking most of the amino-terminal domain) is on record as 100 fold.
On to “AVAEIQLMHARAKHLNSMERVEWLRKKLQDVHNY-NH2 [Peptide #7]”, for which the EC50 in test [1] is 0.112 nM; in test [2], 280 ± 160 nM. For the same compound, the results for the Emax in test [1] (SAOS-2 cells), in test [2] (COS-7 cells) and in test [3] were 272 ± 33 picomole/well, 251 ± 39 picomole/well and 395 ± 1 picomole/well, respectively. Moreover, the “potency relative to rPTH(1-34) or hPTH(1-34) (in words)” value in test [2] (COS-7 cells expressing hΔNt) was “dramatically more potent”.
“AVSEIQLMHNLGKH-NH2 [native rPTH(1-14), AVSEIQLMHNLGKH, reference compound]”: the “EC50 Log M” value in test [1] (SAOS-2 cells, cAMP) is “barely active”. Further, the EC50 in test [2] (setting [4]) amounted to 313000 ± 121000 nM. Moreover, the results for the Emax in test [2] (COS-7 cells) and in test [3] were 222 ± 31 picomole/well and 376 ± 23 picomole/well, respectively.
